Tested on: RSV A2
Assay: Virus titre in air-liquid interface (ALI) cultured bronchial epithelial cells (plaque assay)
Type: cell-based, human respiratory syncytial virus
Settings: for Effect on RSV titre (in words): early intervention
Experimental: Assessment of Virus Titre in Air-liquid Interface (ALI) Cultured Bronchial Epithelial Cells
ALI cultured human bronchial epithelial cells were sourced from Epithelix Sarl (Geneva, Switzerland) and maintained by changing the basal media every 3-4 days, whilst the apical surface was washed once weekly with PBS. On Day 0, the apical surface of each well was washed once with sterile PBS (300 μL) and the inserts were transferred to new 24-well plates containing fresh MucilAir culture medium (780 μL; EP04MM). RSV A2 (50 μL; diluted in MucilAir culture medium to give a final MOI of 0.01) was added to cells for one hr (37° C./5% CO2). For the purposes of standardizing MOI calculations, each MucilAir insert was estimated to contain 2×10^5 apical facing cells per well. Virus inoculum was removed with a pipette and inserts were washed twice with sterile PBS (300 μL).
Sampling was conducted by adding sterile PBS (300 μL) to the apical surface of each well for 5 min. The apical sample was then removed and transferred to tubes containing 50% sucrose dissolved in PBS (100 μL) before being stored at −80° C. This harvesting procedure was repeated daily beginning on day 0 and concluding on day 7.
ALI cultures were dosed apically with test compound on days 0-7 for “early intervention” protocols, or days 3-7 for “late intervention” protocols. The test compound (50 μL in 0.5% DMSO/PBS) was added to the apical surface and incubated (37° C./5% CO2) for 1 hr before being removed. Vehicle treatments (0.5% DMSO/PBS) were performed on the corresponding apical surfaces to ensure each well received the same number of manipulations. On day 5, the basal media was removed from each well and replenished with fresh MucilAir culture media as a necessary maintenance step for ALI culture cells.
Virus titre was quantified by plaque assay. HEp2 cells were grown in 24-well plates (Corning) for 48 hr prior to infection in DMEM containing 10% FBS until they attained 100% confluency. Collected samples were thawed at RT and ten-fold serial dilutions were prepared in serum-free DMEM. The growth medium from HEp2 cells was aspirated and replaced with 300 μL of serially diluted virus collections and left to infect at 37° C./5% CO2 for 4 hr. The infectious media was aspirated and replaced with Plaque Assay Overlay (500 μL; 1% methylcellulose in MEM, 2% FBS, 1% Pen Strep, 0.5 μg/mL amphotericin B), and left for 7 days at 37° C./5% CO2. Cells were fixed with ice-cold methanol for 10 min and blocked with 5% powdered milk (Marvel) in 0.05% PBS-tween (‘blocking buffer’) for 1 hr at RT. Anti-RSV F-protein antibody (2F7; Abcam: ab43812) was diluted to a 1:100 concentration in blocking buffer and added to cells for 1 hr at RT with shaking. Cells were washed using PBS and incubated with the secondary antibody (HRP conjugated goat anti-mouse secondary antibody (Dako P044701-2) diluted in 1:400 with blocking buffer) for 1 hr at RT with shaking. The secondary antibody solution was removed and cells were washed with PBS before the metal-enhanced development substrate DAB was prepared in ultra-pure water (according to manufacturer's instructions). Each well received 300 μL of development substrate (sigmaFAST D0426) until plaques were visible. Plaques were counted by eye and confirmed using light microscopy, allowing the calculation of plaque forming units per mL.

## Cc1cnc(N2CC3(CCOCC3)C2)c(C(=O)Nc2ccc(C(=O)N3CCc4cc(C(=O)Nc5c(C)cccc5F)sc4-c4ccccc43)cc2)c1 [Example 5, N-(2-Fluoro-6-methylphenyl)-6-(4-(5-methyl-2-(7-oxa-2-azaspiro[3.5]nonan-2-yl)nicotinamido)benzoyl)-5,6-dihydro-4H-benzo[b]thieno[2,3-d]azepine-2-carboxamide]
Early intervention (days 0-7), 0.004 mg/mL, day 0
  Virus titre in apical wash, geometric mean ± SD: 0.0 ± 0.0 log PFU/mL
Early intervention (days 0-7), 0.004 mg/mL, day 1
  Virus titre in apical wash, geometric mean ± SD: 0.61 ± 0.86 log PFU/mL
Early intervention (days 0-7), 0.004 mg/mL, day 2
  Virus titre in apical wash, geometric mean ± SD: 3.1 ± 0.22 log PFU/mL
Early intervention (days 0-7), 0.004 mg/mL, day 3
  Virus titre in apical wash, geometric mean ± SD: 3.9 ± 0.18 log PFU/mL
Early intervention (days 0-7), 0.004 mg/mL, day 4
  Virus titre in apical wash, geometric mean ± SD: 4.1 ± 0.16 log PFU/mL
Early intervention (days 0-7), 0.004 mg/mL, day 5
  Virus titre in apical wash, geometric mean ± SD: 4.2 ± 0.12 log PFU/mL
Early intervention (days 0-7), 0.004 mg/mL, day 6
  Virus titre in apical wash, geometric mean ± SD: 3.2 ± 0.26 log PFU/mL
Early intervention (days 0-7), 0.004 mg/mL, day 7
  Virus titre in apical wash, geometric mean ± SD: 2.8 ± 0.43 log PFU/mL
Early intervention (days 0-7), 0.02 mg/mL, day 0
  Virus titre in apical wash, geometric mean ± SD: 0.0 ± 0.0 log PFU/mL
Early intervention (days 0-7), 0.02 mg/mL, day 1
  Virus titre in apical wash, geometric mean ± SD: 0.0 ± 0.0 log PFU/mL
Early intervention (days 0-7), 0.02 mg/mL, day 2
  Virus titre in apical wash, geometric mean ± SD: 0.0 ± 0.0 log PFU/mL
Early intervention (days 0-7), 0.02 mg/mL, day 3
  Virus titre in apical wash, geometric mean ± SD: 0.0 ± 0.0 log PFU/mL
Early intervention (days 0-7), 0.02 mg/mL, day 4
  Virus titre in apical wash, geometric mean ± SD: 1.4 ± 1.1 log PFU/mL
Early intervention (days 0-7), 0.02 mg/mL, day 5
  Virus titre in apical wash, geometric mean ± SD: 1.9 ± 1.4 log PFU/mL
Early intervention (days 0-7), 0.02 mg/mL, day 6
  Virus titre in apical wash, geometric mean ± SD: 0.0 ± 0.0 log PFU/mL
Early intervention (days 0-7), 0.02 mg/mL, day 7
  Virus titre in apical wash, geometric mean ± SD: 0.0 ± 0.0 log PFU/mL
Early intervention (days 0-7), 0.1 mg/mL, day 0
  Virus titre in apical wash, geometric mean ± SD: 0.0 ± 0.0 log PFU/mL
Early intervention (days 0-7), 0.1 mg/mL, day 1
  Virus titre in apical wash, geometric mean ± SD: 0.0 ± 0.0 log PFU/mL
Early intervention (days 0-7), 0.1 mg/mL, day 2
  Virus titre in apical wash, geometric mean ± SD: 0.0 ± 0.0 log PFU/mL
Early intervention (days 0-7), 0.1 mg/mL, day 3
  Virus titre in apical wash, geometric mean ± SD: 0.0 ± 0.0 log PFU/mL
Early intervention (days 0-7), 0.1 mg/mL, day 4
  Virus titre in apical wash, geometric mean ± SD: 0.0 ± 0.0 log PFU/mL
Early intervention (days 0-7), 0.1 mg/mL, day 5
  Virus titre in apical wash, geometric mean ± SD: 0.0 ± 0.0 log PFU/mL
Early intervention (days 0-7), 0.1 mg/mL, day 6
  Virus titre in apical wash, geometric mean ± SD: 0.0 ± 0.0 log PFU/mL
Early intervention (days 0-7), 0.1 mg/mL, day 7
  Virus titre in apical wash, geometric mean ± SD: 0.0 ± 0.0 log PFU/mL
0.1 μg/mL over 7 days
  Effect on RSV titre (in words): complete inhibition
Apical well daily from day 0 to day 7
  Effect on RSV titre (in words): concentration dependent inhibition
Early or late stage intervention
  Effect on virus titre (in words): completely inhibited virus titre
Late intervention (days 3-7), 0.02 mg/mL, day 0
  Virus titre in apical wash, geometric mean ± SD: 0.0 ± 0.0 log PFU/mL
Late intervention (days 3-7), 0.02 mg/mL, day 1
  Virus titre in apical wash, geometric mean ± SD: 1.6 ± 1.1 log PFU/mL
Late intervention (days 3-7), 0.02 mg/mL, day 2
  Virus titre in apical wash, geometric mean ± SD: 3.9 ± 0.15 log PFU/mL
Late intervention (days 3-7), 0.02 mg/mL, day 3
  Virus titre in apical wash, geometric mean ± SD: 5.2 ± 0.04 log PFU/mL
Late intervention (days 3-7), 0.02 mg/mL, day 4
  Virus titre in apical wash, geometric mean ± SD: 3.8 ± 0.50 log PFU/mL
Late intervention (days 3-7), 0.02 mg/mL, day 5
  Virus titre in apical wash, geometric mean ± SD: 3.6 ± 0.13 log PFU/mL
Late intervention (days 3-7), 0.02 mg/mL, day 6
  Virus titre in apical wash, geometric mean ± SD: 0.0 ± 0.0 log PFU/mL
Late intervention (days 3-7), 0.02 mg/mL, day 7
  Virus titre in apical wash, geometric mean ± SD: 1.3 ± 0.94 log PFU/mL
Late intervention (days 3-7), 0.1 mg/mL, day 0
  Virus titre in apical wash, geometric mean ± SD: 0.0 ± 0.0 log PFU/mL
Late intervention (days 3-7), 0.1 mg/mL, day 1
  Virus titre in apical wash, geometric mean ± SD: 2.3 ± 0.35 log PFU/mL
Late intervention (days 3-7), 0.1 mg/mL, day 2
  Virus titre in apical wash, geometric mean ± SD: 4.1 ± 0.14 log PFU/mL
Late intervention (days 3-7), 0.1 mg/mL, day 3
  Virus titre in apical wash, geometric mean ± SD: 5.0 ± 0.14 log PFU/mL
Late intervention (days 3-7), 0.1 mg/mL, day 4
  Virus titre in apical wash, geometric mean ± SD: 3.8 ± 0.31 log PFU/mL
Late intervention (days 3-7), 0.1 mg/mL, day 5
  Virus titre in apical wash, geometric mean ± SD: 1.7 ± 1.2 log PFU/mL
Late intervention (days 3-7), 0.1 mg/mL, day 6
  Virus titre in apical wash, geometric mean ± SD: 0.0 ± 0.0 log PFU/mL
Late intervention (days 3-7), 0.1 mg/mL, day 7
  Virus titre in apical wash, geometric mean ± SD: 0.0 ± 0.0 log PFU/mL
Late intervention, administered from day 3, days 6 and 7 post infection
  Effect on virus titre (in words): dramatic reduction of virus titre

Reference: US10189863B2, “5,6-dihydro-4H-benzo[b]thieno-[2,3-d]azepine derivatives” (PULMOCIDE LIMITED, priority 2014, dated 2019)
